In patent EP4745135A1 (Gluetacs Therapeutics (Shanghai) Co., Ltd., priority 2023, dated 2025):

What was measured:
IKZF3 = target: T1, IKZF3 (Homo sapiens, UniProt Q96SW2+Q9UKT9); experiment: Western blot, degradation of substrate protein in hPBMCs; assay type: cell-based; conditions: Western blot, 24 hours of compound treatment, compounds tested at 50 nM and 500 nM (concentration for the table not stated)
T1 construct: effects of the compounds of the present disclosure on the expression of target proteins in cells; endogenous in cells; host or cells: human PBMCs (Milecell Biotechnologies)

WEE1 = target: T2, WEE1 (Homo sapiens, UniProt P30291+Q96SW2); experiment: as above; assay type: cell-based; conditions: Western blot, 24 hours of compound treatment, compounds tested at 50 nM and 500 nM (concentration for the table not stated)
T2 construct: effects of the compounds of the present disclosure on the expression of target proteins in cells; endogenous in cells; host or cells: human PBMCs (Milecell Biotechnologies)

IKZF2 = target: T3, IKZF2 (Homo sapiens, UniProt Q96SW2+Q9UKS7); experiment: as above; assay type: cell-based; conditions: Western blot, 24 hours of compound treatment, compounds tested at 50 nM and 500 nM (concentration for the table not stated)
T3 construct: effects of the compounds of the present disclosure on the expression of target proteins in cells; endogenous in cells; host or cells: human PBMCs (Milecell Biotechnologies)

IKZF1 = target: T4, IKZF1 (Homo sapiens, UniProt Q13422+Q96SW2); experiment: as above; assay type: cell-based; conditions: Western blot, 24 hours of compound treatment, compounds tested at 50 nM and 500 nM (concentration for the table not stated)
T4 construct: effects of the compounds of the present disclosure on the expression of target proteins in cells; endogenous in cells; host or cells: human PBMCs (Milecell Biotechnologies)

CK1α = target: T5, CK1α (Homo sapiens, UniProt P48729+Q96SW2); experiment: as above; assay type: cell-based; conditions: Western blot, 24 hours of compound treatment, compounds tested at 50 nM and 500 nM (concentration for the table not stated)
T5 construct: effects of the compounds of the present disclosure on the expression of target proteins in cells; endogenous in cells; host or cells: human PBMCs (Milecell Biotechnologies)

[1] = target: T6, human Cereblon WT GST-tagged protein (Homo sapiens, UniProt Q96SW2); experiment: CRBN-binding affinity, HTRF (CEREBLON BINDING kit); conditions: for inhibition at 0.5 µM: read-out: Inhibition Rate at 0.5 µM (%); for inhibition at 2 µM: read-out: Inhibition Rate at 2 µM (%)
T6 construct: purchased CISBIO 64BDCRBNPEH

GSPT1 = experiment: Western blot, degradation of substrate protein in hPBMCs; assay type: cell-based, Human; conditions: Western blot, 24 hours of compound treatment, compounds tested at 50 nM and 500 nM (concentration for the table not stated)

T6 sequence (Q96SW2 whole entry): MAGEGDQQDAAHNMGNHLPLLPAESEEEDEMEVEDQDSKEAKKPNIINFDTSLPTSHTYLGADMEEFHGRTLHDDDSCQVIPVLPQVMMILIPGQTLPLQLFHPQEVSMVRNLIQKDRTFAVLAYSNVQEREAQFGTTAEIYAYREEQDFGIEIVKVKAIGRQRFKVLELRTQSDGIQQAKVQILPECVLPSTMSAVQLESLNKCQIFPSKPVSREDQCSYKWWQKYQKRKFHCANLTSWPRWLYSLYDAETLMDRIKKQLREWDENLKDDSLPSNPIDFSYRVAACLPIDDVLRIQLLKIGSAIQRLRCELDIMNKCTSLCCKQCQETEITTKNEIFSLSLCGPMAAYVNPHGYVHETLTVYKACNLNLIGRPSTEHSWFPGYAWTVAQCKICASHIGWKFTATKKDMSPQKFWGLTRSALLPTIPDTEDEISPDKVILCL
T3 sequence (Q9UKS7 whole entry): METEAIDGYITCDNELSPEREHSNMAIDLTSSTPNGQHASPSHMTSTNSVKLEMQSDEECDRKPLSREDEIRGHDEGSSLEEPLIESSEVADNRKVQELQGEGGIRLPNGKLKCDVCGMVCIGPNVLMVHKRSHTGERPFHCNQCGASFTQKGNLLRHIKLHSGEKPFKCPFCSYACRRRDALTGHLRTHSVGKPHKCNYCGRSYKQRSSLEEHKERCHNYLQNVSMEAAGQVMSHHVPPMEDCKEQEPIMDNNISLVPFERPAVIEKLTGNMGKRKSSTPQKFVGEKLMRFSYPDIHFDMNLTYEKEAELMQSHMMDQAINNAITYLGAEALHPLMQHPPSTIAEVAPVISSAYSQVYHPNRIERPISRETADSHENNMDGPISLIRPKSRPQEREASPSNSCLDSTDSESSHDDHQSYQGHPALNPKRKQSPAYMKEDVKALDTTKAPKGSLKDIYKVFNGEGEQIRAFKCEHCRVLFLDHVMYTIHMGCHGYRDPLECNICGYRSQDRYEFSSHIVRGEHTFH
T3 sequence (Q96SW2 whole entry): as the sequence (Q96SW2 whole entry) above
T3 sequence (Q16531 whole entry partner): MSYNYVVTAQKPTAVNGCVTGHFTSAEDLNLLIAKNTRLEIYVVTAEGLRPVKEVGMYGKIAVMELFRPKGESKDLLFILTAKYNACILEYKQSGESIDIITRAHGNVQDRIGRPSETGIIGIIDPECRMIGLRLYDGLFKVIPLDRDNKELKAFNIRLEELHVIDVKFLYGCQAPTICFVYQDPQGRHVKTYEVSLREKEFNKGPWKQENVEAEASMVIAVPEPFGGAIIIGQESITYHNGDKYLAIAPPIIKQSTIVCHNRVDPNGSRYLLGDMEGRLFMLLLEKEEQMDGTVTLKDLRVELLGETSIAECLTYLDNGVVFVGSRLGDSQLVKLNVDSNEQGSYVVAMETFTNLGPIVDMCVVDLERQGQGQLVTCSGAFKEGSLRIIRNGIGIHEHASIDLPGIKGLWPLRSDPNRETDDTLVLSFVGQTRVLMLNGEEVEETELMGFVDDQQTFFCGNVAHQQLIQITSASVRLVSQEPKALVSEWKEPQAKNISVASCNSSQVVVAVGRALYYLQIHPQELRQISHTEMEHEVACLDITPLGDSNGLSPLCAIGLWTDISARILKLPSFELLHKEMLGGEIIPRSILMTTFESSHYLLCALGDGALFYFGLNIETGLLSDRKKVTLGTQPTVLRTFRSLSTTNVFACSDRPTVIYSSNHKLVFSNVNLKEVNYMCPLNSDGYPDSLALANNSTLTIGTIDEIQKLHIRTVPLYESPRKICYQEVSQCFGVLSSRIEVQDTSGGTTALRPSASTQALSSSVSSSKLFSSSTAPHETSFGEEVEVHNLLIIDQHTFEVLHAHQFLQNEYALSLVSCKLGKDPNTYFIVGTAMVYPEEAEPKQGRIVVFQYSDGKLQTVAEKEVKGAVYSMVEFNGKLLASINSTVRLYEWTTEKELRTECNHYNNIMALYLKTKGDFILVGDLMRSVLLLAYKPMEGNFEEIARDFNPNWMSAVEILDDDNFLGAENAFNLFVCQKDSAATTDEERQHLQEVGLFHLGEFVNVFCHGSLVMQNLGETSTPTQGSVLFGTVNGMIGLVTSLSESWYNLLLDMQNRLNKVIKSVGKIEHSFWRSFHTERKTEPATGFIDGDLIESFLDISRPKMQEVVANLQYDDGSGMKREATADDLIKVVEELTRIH
T1 sequence (Q9UKT9 whole entry): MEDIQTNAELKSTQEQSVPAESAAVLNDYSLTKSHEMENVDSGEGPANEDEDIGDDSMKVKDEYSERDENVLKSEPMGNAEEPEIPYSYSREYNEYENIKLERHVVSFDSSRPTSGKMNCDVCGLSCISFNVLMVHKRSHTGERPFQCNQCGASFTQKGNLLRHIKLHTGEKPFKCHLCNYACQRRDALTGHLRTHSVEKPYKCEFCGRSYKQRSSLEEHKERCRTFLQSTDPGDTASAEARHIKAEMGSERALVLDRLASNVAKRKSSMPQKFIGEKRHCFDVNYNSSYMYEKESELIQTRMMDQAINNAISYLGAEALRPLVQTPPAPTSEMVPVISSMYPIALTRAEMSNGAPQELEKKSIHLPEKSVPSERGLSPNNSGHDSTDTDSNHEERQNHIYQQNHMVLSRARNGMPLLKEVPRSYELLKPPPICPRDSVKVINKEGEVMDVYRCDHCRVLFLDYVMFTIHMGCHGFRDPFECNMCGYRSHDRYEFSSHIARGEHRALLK
T1 sequence (Q96SW2 whole entry): as the sequence (Q96SW2 whole entry) above
T1 sequence (Q16531 whole entry partner): as the sequence (Q16531 whole entry partner) above
T2 sequence (P30291 whole entry): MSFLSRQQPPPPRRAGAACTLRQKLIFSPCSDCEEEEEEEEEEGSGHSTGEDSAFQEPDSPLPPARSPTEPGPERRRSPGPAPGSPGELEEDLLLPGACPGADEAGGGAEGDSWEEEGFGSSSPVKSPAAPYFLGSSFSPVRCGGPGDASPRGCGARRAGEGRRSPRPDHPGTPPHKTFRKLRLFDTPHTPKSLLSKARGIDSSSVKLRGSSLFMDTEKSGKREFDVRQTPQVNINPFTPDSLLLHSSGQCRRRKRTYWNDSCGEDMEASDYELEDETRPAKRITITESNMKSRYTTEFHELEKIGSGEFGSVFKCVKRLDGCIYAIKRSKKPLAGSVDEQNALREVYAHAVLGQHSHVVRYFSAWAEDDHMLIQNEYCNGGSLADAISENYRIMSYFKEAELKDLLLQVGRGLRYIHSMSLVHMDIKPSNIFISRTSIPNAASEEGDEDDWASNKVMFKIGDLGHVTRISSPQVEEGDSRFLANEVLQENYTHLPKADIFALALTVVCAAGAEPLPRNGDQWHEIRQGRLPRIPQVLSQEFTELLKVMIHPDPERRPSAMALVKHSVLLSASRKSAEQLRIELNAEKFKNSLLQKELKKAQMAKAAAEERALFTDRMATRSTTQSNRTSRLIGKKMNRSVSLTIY
T2 sequence (Q96SW2 whole entry): as the sequence (Q96SW2 whole entry) above
T2 sequence (Q16531 whole entry partner): as the sequence (Q16531 whole entry partner) above
T4 sequence (Q13422 whole entry): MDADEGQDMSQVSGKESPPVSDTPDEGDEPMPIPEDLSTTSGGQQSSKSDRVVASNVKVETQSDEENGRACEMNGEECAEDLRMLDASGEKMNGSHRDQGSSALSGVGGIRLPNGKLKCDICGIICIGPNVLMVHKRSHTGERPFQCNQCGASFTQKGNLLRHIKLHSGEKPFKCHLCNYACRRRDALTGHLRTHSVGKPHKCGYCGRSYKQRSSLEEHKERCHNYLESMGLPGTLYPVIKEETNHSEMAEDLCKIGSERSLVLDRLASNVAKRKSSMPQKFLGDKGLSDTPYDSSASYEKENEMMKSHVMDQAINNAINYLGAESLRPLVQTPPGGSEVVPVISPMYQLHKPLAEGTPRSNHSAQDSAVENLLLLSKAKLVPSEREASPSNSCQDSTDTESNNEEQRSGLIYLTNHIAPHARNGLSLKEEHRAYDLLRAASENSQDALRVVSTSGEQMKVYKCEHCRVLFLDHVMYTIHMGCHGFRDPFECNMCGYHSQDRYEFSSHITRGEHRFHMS
T4 sequence (Q96SW2 whole entry): as the sequence (Q96SW2 whole entry) above
T4 sequence (Q16531 whole entry partner): as the sequence (Q16531 whole entry partner) above
T5 sequence (P48729 whole entry): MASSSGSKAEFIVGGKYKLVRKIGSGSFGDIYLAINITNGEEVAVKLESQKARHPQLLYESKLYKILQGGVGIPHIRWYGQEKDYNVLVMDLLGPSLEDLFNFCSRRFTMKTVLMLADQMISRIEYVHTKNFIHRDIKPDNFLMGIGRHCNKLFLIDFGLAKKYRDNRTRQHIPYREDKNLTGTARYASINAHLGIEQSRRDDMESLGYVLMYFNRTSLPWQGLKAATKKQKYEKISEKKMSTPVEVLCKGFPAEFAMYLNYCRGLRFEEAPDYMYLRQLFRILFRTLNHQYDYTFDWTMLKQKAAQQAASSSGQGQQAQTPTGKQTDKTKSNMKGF
T5 sequence (Q96SW2 whole entry): as the sequence (Q96SW2 whole entry) above
T5 sequence (Q16531 whole entry partner): as the sequence (Q16531 whole entry partner) above

Compound	IKZF3 substrate protein remaining % (IKZF3)	Wee1 substrate protein remaining % (WEE1)	IKZF2 substrate protein remaining % (IKZF2)	IKZF 1 substrate protein remaining % (IKZF1)	CK1α substrate protein remaining % (CK1α)	inhibition at 0.5 µM [1] [%]	inhibition at 2 µM [1] [%]	GSPT1 substrate protein remaining % (GSPT1)
O=C1CCC(N2Cc3c(CN4CCN(c5ncc(C(F)(F)F)cc5Cl)CC4)cccc3C2=S)C(=O)N1 (stereo not shown) [GT-08705, 3-(4-((4-(3-chloro-5-(trifluoromethyl)pyridin-2-yl)piperazin-1-yl)methyl)-1-thioxoisoindolin-2-yl)piperidine-2,6-dione]	B (80%< substrate protein remaining %≤ 100%)	A (0% ≤ substrate protein remaining % ≤ 80%)	B (80%< substrate protein remaining %≤ 100%)	B (80%< substrate protein remaining %≤ 100%)	B (80%< substrate protein remaining %≤ 100%)	30 to 40	60 to 80	B (80%< substrate protein remaining %≤ 100%)
O=C1CCC(N2Cc3c(CN4CCN(c5cccnc5)CC4)cccc3C2=S)C(=O)N1 (stereo not shown) [GT-08706, 3-(4-((4-(pyridin-3-yl)piperazin-1-yl)methyl)-1-thioxoisoindolin-2-yl)piperidine-2,6-dione]	A (0% ≤ substrate protein remaining % ≤ 80%)	A (0% ≤ substrate protein remaining % ≤ 80%)	A (0% ≤ substrate protein remaining % ≤ 80%)	B (80%< substrate protein remaining %≤ 100%)	B (80%< substrate protein remaining %≤ 100%)	53 to 60	80 to 100	A (0% ≤ substrate protein remaining % ≤ 80%)
O=C1CCC(N2Cc3c(CN4CCN(c5ccc(Cl)nc5)CC4)cccc3C2=S)C(=O)N1 (stereo not shown) [GT-08723, 3-(4-((4-(6-chloropyridin-3-yl)piperazin-1-yl)methyl)-1-thioxoisoindolin-2-yl)piperidine-2,6-dione]	A (0% ≤ substrate protein remaining % ≤ 80%)	A (0% ≤ substrate protein remaining % ≤ 80%)	A (0% ≤ substrate protein remaining % ≤ 80%)	B (80%< substrate protein remaining %≤ 100%)	B (80%< substrate protein remaining %≤ 100%)	60 to 80	80 to 100	A (0% ≤ substrate protein remaining % ≤ 80%)
O=C1CCC(N2Cc3c(CN4CCN(c5cncc(Cl)c5Cl)CC4)cccc3C2=S)C(=O)N1 (stereo not shown) [GT-08724, 3-(4-((4-(4,5-dichloropyridin-3-yl)piperazin-1-yl)methyl)-1-thioxoisoindolin-2-yl)piperidine-2,6-dione]	B (80%< substrate protein remaining %≤ 100%)	A (0% ≤ substrate protein remaining % ≤ 80%)	B (80%< substrate protein remaining %≤ 100%)	B (80%< substrate protein remaining %≤ 100%)	B (80%< substrate protein remaining %≤ 100%)	60 to 80	80 to 100	B (80%< substrate protein remaining %≤ 100%)
O=C1CCC(N2Cc3c(CN4CCN(c5ccncc5)CC4)cccc3C2=S)C(=O)N1 (stereo not shown) [GT-08726, 3-(4-((4-(pyridin-4-yl)piperazin-1-yl)methyl)-1-thioxoisoindolin-2-yl)piperidine-2,6-dione]	A (0% ≤ substrate protein remaining % ≤ 80%)	A (0% ≤ substrate protein remaining % ≤ 80%)	A (0% ≤ substrate protein remaining % ≤ 80%)	B (80%< substrate protein remaining %≤ 100%)	B (80%< substrate protein remaining %≤ 100%)	60 to 80	80 to 100	A (0% ≤ substrate protein remaining % ≤ 80%)
O=C1CCC(N2Cc3c(CN4CCN(c5nccc(F)c5F)CC4)cccc3C2=S)C(=O)N1 (stereo not shown) [GT-08728, 3-(4-((4-(3,4-difluoropyridin-2-yl)piperazin-1-yl)methyl)-1-thioxoisoindolin-2-yl)piperidine-2,6-dione]	B (80%< substrate protein remaining %≤ 100%)	A (0% ≤ substrate protein remaining % ≤ 80%)	B (80%< substrate protein remaining %≤ 100%)	B (80%< substrate protein remaining %≤ 100%)	B (80%< substrate protein remaining %≤ 100%)	53 to 60	80 to 100	B (80%< substrate protein remaining %≤ 100%)
O=C1CCC(N2Cc3c(CN4CCN(c5ccncc5Br)CC4)cccc3C2=S)C(=O)N1 (stereo not shown) [GT-08729, 3-(4-((4-(3-bromopyridin-4-yl)piperazin-1-yl)methyl)-1-thioxoisoindolin-2-yl)piperidine-2,6-dione]	B (80%< substrate protein remaining %≤ 100%)	A (0% ≤ substrate protein remaining % ≤ 80%)	B (80%< substrate protein remaining %≤ 100%)	B (80%< substrate protein remaining %≤ 100%)	B (80%< substrate protein remaining %≤ 100%)	60 to 80	80 to 100	B (80%< substrate protein remaining %≤ 100%)
O=C1CCC(N2Cc3c(CN4CCN(c5ccncc5F)CC4)cccc3C2=S)C(=O)N1 (stereo not shown) [GT-08730, 3-(4-((4-(3-fluoropyridin-4-yl)piperazin-1-yl)methyl)-1-thioxoisoindolin-2-yl)piperidine-2,6-dione]	B (80%< substrate protein remaining %≤ 100%)	A (0% ≤ substrate protein remaining % ≤ 80%)	B (80%< substrate protein remaining %≤ 100%)	B (80%< substrate protein remaining %≤ 100%)	B (80%< substrate protein remaining %≤ 100%)	60 to 80	80 to 100	B (80%< substrate protein remaining %≤ 100%)
